Test results as given in patent US11260029B2, “Fish feed compositions containing a neonicotinoid for preventing and treating parasite infections” (priority 2014, dated 2022).
Values joined by “and” are separate entries in the source; they are usually repeats but may differ in a detail not shown here. Equal entries are not always repeated.

Columns and labels:
[1] = tested on: L. salmonis; conditions: in-feed 1, 5 or 10 mg/kg/day for 7 days; WO 2014/064184; cited from earlier work
[2] = tested on: Lepeophtheirus pre-adult lice; experiment: Feed trials: removal of pre-adult sea lice from fish fed medicated feed; type: in vivo; conditions: for Lice removed by 11 days after last day of treatment / Lice removed by 3 days after last day of treatment: Feed Trial Number One; for Lice removed by 2 days after last day of treatment / Lice removed by 9 days after last day of treatment: Feed Trial Number Two
Procedure: Empyreal™ 75, a processed corn protein concentrate, was mixed with imidacloprid to form a pre-mix. This pre-mix was then added to salmon feeds using fish oil to help coat it onto the pellets to prepare the medicated feed.
Medicated feed for fish was prepared based on the amount of feed that the fish were consuming each day to give a total dosage to different tanks of fish of 10, 20, 40, 60 and 100 milligrams of active ingredient (imidacloprid) over a 5 day period. Experiments were run using total dosages given over 5 days of feeding. A 5 day period was used to provide efficacy, convenience and safety.
Individual fish weights ranged from 62 to 188 grams.
Sea lice have a number of developmental stages on salmon of which two are pre-adults that do a lot of damage to the fish (e.g. Lepeophtheirus pre-adult I, Lepeophtheirus pre-adult II, Caligus pre-adult I, Caligus pre-adult II). Compositions were tested on the two pre-adult stages of Lepeophtheirus. The disclosed compositions are also useful for killing sea lice in the adult male and adult female and adult gravid female stage and the juvenile chalimus stages.

[3] = tested on: salmon lice; conditions: 100 ppm bath; in one hour; U.S. Pat. No. 5,504,081; cited from earlier work
[4] = Tolerance of fish at five times the 20 mg/kg total dosage (mortalities, histology); type: in vivo, salmon
[5] = 8 mg/kg fish per day, total 40 mg/kg
[6] = 12 mg/kg fish per day, total 60 mg/kg
[7] = 2 mg/kg fish per day, total 10 mg/kg

Row | Compound | sea lice elimination [1] | Lepeophtheirus lice removed ([2]; 4 mg per kilogram per day for five days, three days into the five-day treatment) | Lice removed by 11 days after last day of treatment ([2]; 4 mg/kg fish per day, total 20 mg/kg, 16 days after treatment had started) | Lice removed by 11 days after last day of treatment ([2]; 4 mg/kg fish per day, total 20 mg/kg, 16 days after treatment had started, listed as imidacloprid) | Lice removed by 3 days after last day of treatment ([2]; 4 mg/kg fish per day, total 20 mg/kg, eight days after the treatment had started) | Lice removed by 3 days after last day of treatment ([2]; 4 mg/kg fish per day, total 20 mg/kg, eight days after the treatment had started, listed as imidacloprid) | Lice removed by 3 days after last day of treatment [2, 5] | Lice removed by 11 days after last day of treatment [2, 5] | Lice removed by 3 days after last day of treatment [2, 6] | Lice removed by 11 days after last day of treatment [2, 6] | Lice removed by 2 days after last day of treatment [2, 7] | Lice removed by 9 days after last day of treatment [2, 7] | Lice removed by 9 days after last day of treatment ([2]; 2 mg/kg fish per day, total 10 mg/kg, listed as imidacloprid) | Lice removed by 2 days after last day of treatment ([2]; 20 mg/kg fish per day, total 100 mg/kg) | removal of lice ([2]; higher dosages trialed, 40, 60 and 100 milligrams total) | lice killed [3] | abnormalities on histological examination of organs ([4]; 100 mg/kg total dosage) | mortalities ([4]; 100 mg/kg total dosage (five times the 20 mg/kg total dosage))
1 | CN/C(=N\[N+](=O)[O-])NCc1cnc(Cl)s1 [clothianidin] | full sea lice elimination |  |  |  |  |  |  |  |  |  |  |  |  |  |  |  |  | 
2 | O=[N+]([O-])NC1=NCCN1Cc1ccc(Cl)nc1 [Imidacloprid, (2E)-1-((6-chloropyridin-3-yl)methyl)-N-nitroimidazolidin-2-imine] |  | 13.6% | 100% | 100% | 96.70% and 96.75% | 96.75% | 97.84% | 97.84%^ | 100% | 100% | 64.28% | 77.67% | 77.7% | 88.37% | very effective removal of lice | 100% | no abnormalities detectable | no mortalities
